Measurements: patent publication US10239893B2, “Controlling the isomerization rate of Azo-BF2 switches using aggregation” (THE TRUSTEES OF DARTMOUTH COLLEGE, priority 2013, dated 2019)
Values joined by “and” are separate entries in the source; they are usually repeats but may differ in a detail not shown here. Identical values can stand only once.

How the values were obtained:
[1] = Isomer ratios under dark and at photostationary states by 1H NMR; assay type: physicochemical; settings: for PSS isomer ratio, cis, irradiation at 710 nm (PSS710): lowest estimation because of fast thermal relaxation
Procedure: ^1H NMR spectroscopy was employed to evaluate the photo-switching efficiency of 10 in CD2Cl2 (0.53 mM).
[…] The LEDs were affixed in a custom irradiation chamber fitted with a cooling fan to maintain ambient temperature. The light intensities at 430 and 600 nm were determined using chemical actinometry^S1 and a Thorlabs optical power meter, respectively. Photoisomerization quantum yields were measured by monitoring the proton integral change in trans/cis isomers after 430 and 600 nm irradiation for 2 and 20 s, respectively. Each quantum yield measurement was repeated three times under the same conditions. The photostationary states (PSS) were determined upon continuous irradiation until no further isomerization was observed using ^1H NMR spectroscopy. PBS buffer is an aqueous solution prepared by dissolving Na2HPO4 (1.420 g), KH2PO4 (0.245 g) NaCl (8.007 g) and KCl (0.201 g) in 1 L deionized water.

[2] = Stability to reduction by glutathione, 10 mM GSH in acetonitrile:PBS buffer (1:1); assay type: physicochemical; settings: for degradation half-life with GSH: acetonitrile:PBS (1:1) with 10 mM GSH, 25° C.
Procedure: (§1) The stability of the switches in an aqueous environment was tested by conducting multiple switching cycles (10 cycles shown in FIG. 22a) of 4 in an acetonitrile:PBS buffer (1:1) mixed solvent system. These experiments were conducted by irradiating the sample using 710 nm light, followed by thermal relaxation under dark. […] The stability of switch 4 to reduction by glutathione (GSH) was also tested. The switch was incubated in 10 mM reduced glutathione in acetonitrile:PBS buffer (1:1) solution.

[3] = Stability (hydrolysis) in acetonitrile:PBS buffer (1:1), followed by UV-Vis; assay type: physicochemical; settings: acetonitrile:PBS (1:1), 25° C.
Procedure: as §1
All reagents and starting materials were purchased from commercial vendors and used without further purification. Column chromatography was performed on silica gel (Silicycle, 230-400 mesh). The melting points were measured on an Electrothermal 9100 instrument in open capillary tubes without thermometer correction. Deuterated solvents were purchased from Cambridge Isotope Laboratories and used as received. ^1H NMR and ^13C NMR spectra were recorded on a 500 MHz spectrometer, with working frequencies of 499.87 MHz for ^1H nuclei and 125.7 MHz for ^13C nuclei, respectively. ^19F NMR spectra were recorded on a 300 MHz spectrometer, with working frequency of 282.2 MHz for ^19F nuclei. Chemical shifts are expressed in ppm relative to tetramethylsilane, using the residual solvent peak as a reference standard. GC-MS spectra were measured on a Shimadzu Gas Chromatograph/Mass Spectrometer (GCMS-QP2010Plus). UV-Vis spectra were recorded on a Shimadzu UV-Vis spectrophotometer (UV-1800). Irradiation experiments were conducted with sufficient stirring using a Newport mercury lamp (67005-414) equipped with a Jarrell-Ash light monochromator. The 710 nm Near IR light source was built with appropriate LED light bulbs (LED710-lau AlGaAs Infrared LEDs purchased from Roithner Lasertechnik GmbH). PBS buffer is an aqueous solution prepared with 11.9 mM sodium phosphate (pH 7.3-7.4), 137 mM NaCl and 2.7 mM KCl.

[4] = Thermal cis→trans relaxation followed by 1H NMR in CD2Cl2; assay type: physicochemical; settings: CD2Cl2 at 294 K, starting from PSS710
Source text: Unaltered CD2Cl2 solution of compound 4 in a quartz NMR tube was irradiated at 710 nm until its photostationary state was reached.

[5] = Reversibility of photoswitching over repeated irradiation cycles; assay type: physicochemical; settings: CH2Cl2, alternating visible light irradiation
Source text: The photoisomerization of Compound 1 was studied extensively by UV/vis (FIG. 1) spectroscopy. When stored in the dark, Compound 1 adopts its thermodynamically stable trans form that has an absorption maximum (λmax) at 530 nm (ε=8026 M^−1 cm^−1). Upon irradiation at 570 nm, the cis form (λmax=480 nm; £=7792 M^−1 cm^−1) becomes dominant, accompanied by a sharp color change of the solution from bright purple to light orange. The process is also accompanied by changes in the intensity of bands at higher energies (λmax=340 and 264 nm). Irradiation at 450 nm drives the system back to its trans form. […] The trans/cis isomerization can be activated solely by the use of visible light and there is no need for UV light.
The synthesis of the azo-BF2 complex 10 started from the hydrazone-based switch,^18 followed by the coupling reaction with BF3.OEt2^19 (Scheme 7). The product was fully characterized using NMR spectroscopy and mass spectrometry (FIGS. 62-76). […] Upon irradiation with a 600 nm light source, E to Z isomerization takes place (isosbestic points at 318, 406, and 508 nm) leading to a new band with a λmax at 501 nm, and e of 11209 M^−1·cm^−1 (FIGS. 58 and 81). The isomerization is accompanied with a significant color change of the solution from purple to dark orange (FIG. 58b).

[6] = Thermal cis→trans isomerization kinetics followed by UV/Vis in CH2Cl2; settings: deoxygenated CH2Cl2, 294 K, starting from cis PSS, average of three measurements
Procedure: The thermal isomerization process was monitored by measuring the change in absorption intensity at 480 nm as a function of time (at 1 min intervals).
The thermal isomerization process was monitored by measuring the change in absorption intensity at 594 nm as a function of time (at 1 min intervals).

Row | Compound | trans isomer ratio under dark [1] | PSS isomer ratio, cis, irradiation at 710 nm (PSS710) ([1]; CD2Cl2 at 294 K) | degradation half-life with GSH [2] | degradation (hydrolysis) half-life [3] | Half-life, cis→trans thermal relaxation [4] | reversibility / degradation on repeated photoisomerization (in words) [5] | PSS isomer ratio, cis, irradiation at 640 nm (PSS640) ([1]; CD2Cl2 at 294 K) | PSS isomer ratio, trans, irradiation at 490 nm (PSS490) ([1]; CD2Cl2 at 294 K) | half-life (t1/2) of the cis→trans isomerization [6] | stability to reduction by glutathione (in words) ([2]; 10 mM reduced glutathione in acetonitrile:PBS buffer (1:1)) | PSS isomer ratio, cis, irradiation at 630 nm (PSS630) ([1]; CD2Cl2 at 294 K)
1 | CN1CCN(c2ccc(N=[N+]3C(C#N)=C4C=Cc5ccccc5N4[B-]3(F)F)cc2)CC1 [Compound 6] | 94% | 49% and 49±1% | 1.3 h | 1.2 h | 0.111 h | – | – | – | – | – | –
2 | N#CC1=C2C=Cc3ccccc3N2[B-](F)(F)[N+]1=Nc1ccccc1 [Compound 1] | – | – | – | – | – | no degradation | – | – | – | – | –
3 | COc1ccc(N=[N+]2C(C#N)=C3C=Cc4ccccc4N3[B-]2(F)F)c(OC)c1 [Compound 3] | 58% | – | – | – | – | – | 79% and 79±1% | 56% and 56±1% | 13.4 h | – | –
4 | CN(C)c1ccc(N=[N+]2C(C#N)=C3C=Cc4ccccc4N3[B-]2(F)F)cc1 [Compound 4] | 97% | 63% and 63±1% | 2.5 h | 2.3 h | 0.0694 h | – | – | – | – | No obvious difference was observed in its degradation half-life | –
5 | N#CC1=C2C=Cc3ccccc3N2[B-](F)(F)[N+]1=Nc1ccc(N2CCCCC2)cc1 [Compound 5] | 98% | – | 2.1 h | 2 h | 0.0417 h | – | – | – | – | – | –
6 | N#CC1=C2C=Cc3ccccc3N2[B-](F)(F)[N+]1=Nc1ccc(N2CCOCC2)cc1 [Compound 7] | 97% | 83% and 82±1% | 1.0 h | 0.9 h | 0.25 h | – | – | – | – | – | –
7 | COc1ccc(N=[N+]2C(C#N)=C3C=Cc4ccccc4N3[B-]2(F)F)cc1 [Compound 2] | 93% | – | – | – | – | – | – | 92% and 92±1% | – | – | 96% and 96±1%
